Publication PMC7466635, “Identification of Quinazolinone Analogs Targeting CDK5 Kinase Activity and Glioblastoma Cell Proliferation” (Frontiers in Chemistry, 2020)
Where two headings read alike, the source gives them in different places.

Tests used:
[1] = target: T1, CDK5 (Homo sapiens, UniProt Q00535); assay: CDKACT5-Cy5 fluorescent kinase activity biosensor with U87 cell extract; residual activity at […], IC50 not fittable; format: cell-based; conditions: U-87 MG
[2] = target: T1, CDK5; assay: biochemical
[3] = target: T1, CDK5; assay: biochemical; remark: listed apart in the source

T1 sequence (Q00535 whole entry): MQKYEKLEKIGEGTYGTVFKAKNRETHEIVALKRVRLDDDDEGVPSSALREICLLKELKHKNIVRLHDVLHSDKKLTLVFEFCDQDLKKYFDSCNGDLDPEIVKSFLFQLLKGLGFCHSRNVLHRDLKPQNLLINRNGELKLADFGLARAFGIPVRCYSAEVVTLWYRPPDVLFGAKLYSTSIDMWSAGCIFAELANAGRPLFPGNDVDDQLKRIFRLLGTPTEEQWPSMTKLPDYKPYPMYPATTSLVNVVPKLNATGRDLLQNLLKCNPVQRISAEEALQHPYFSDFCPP
T1 sequence (Q15078 2-307 partner): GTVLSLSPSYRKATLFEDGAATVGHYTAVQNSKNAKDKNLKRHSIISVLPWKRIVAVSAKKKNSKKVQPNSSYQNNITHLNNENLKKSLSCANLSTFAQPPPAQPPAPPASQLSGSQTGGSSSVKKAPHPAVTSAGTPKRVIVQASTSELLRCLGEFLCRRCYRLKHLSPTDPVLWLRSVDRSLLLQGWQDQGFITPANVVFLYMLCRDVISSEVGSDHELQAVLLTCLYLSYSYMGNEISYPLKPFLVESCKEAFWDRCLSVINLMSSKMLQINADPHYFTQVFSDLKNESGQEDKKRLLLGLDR

SMILES	IC50 [2] [µM]	IC50 [3] [µM]	other results
Nc1ccc2[nH]c(SCc3nc4ccccc4c(=O)n3-c3cccc(C(F)(F)F)c3)nc2c1 [5a, JMV5798]	–	–	activity at 100 µM [1]: 40.2 ± 2.4%
Nc1ccc2[nH]c(SCc3nc4ccccc4c(=O)n3-c3ccccc3)nc2c1 [5d, JMV5800]	8.29 ± 3.56	–	–
Nc1ccc2[nH]c(SCc3nc4ccccc4c(=O)n3-c3ccccc3Br)nc2c1 [5j, JMV5886]	–	24.4 ± 32.5	–
Nc1ccc2[nH]c(SCc3nc4ccccc4c(=O)n3-c3ccc(Br)cc3)nc2c1 [5l, JMV5889]	–	28.7 ± 51.2	–
Nc1ccc2[nH]c(SCc3nc4ccccc4c(=O)n3-c3cccc(Cl)c3)nc2c1 [5m, JMV5884]	7.6 ± 3.8	–	–
Cc1ccc2c(=O)n(-c3ccccc3)c(CSc3nc4cc(N)ccc4[nH]3)nc2c1 [5p, JMV5735]	–	9.35 ± 11.1	–
